Experimental data as given in article PMC10600247, “Impact of C- and N-terminal protection on the stability, metal chelation and antimicrobial properties of calcitermin” (Scientific Reports, 2023).
Residues, ends and D or L forms follow the SMILES beside them.

Assays:
[1] = Description: Stability constants for proton and metal complexes were obtained from pH-metric titration curves registered at T = 298 K and ionic strength 0.1 M (KCl). The potentiometric apparatus was previously described. Solutions were titrated with 0.1 M carbonate-free KOH. The electrode was daily calibrated for hydrogen ion concentration by titrating HNO3 with the standard base solution, under the same experimental conditions as above. The asymmetry potential and the slope of the electrode couple were computed by means of […][41] and Glee[42] programs. The purities and exact concentrations of the ligand solutions were determined by the Gran method. The […][44] program was employed for the overall formation constant (β) calculations, referred to the following equilibrium equation: pM + qL + rH ⇆ MpLqHr (charges omitted; p is 0 in the case of ligand protonation; r can be negative). The computed standard deviations (referring to random errors only) were given by the program itself and are shown in parentheses as uncertainties on the last significant figure. Hydrolysis constants for metal ions were taken from the literature[45],[46]. The distribution and competition diagrams were computed using the HYSS program.
1. Wild-type calcitermin: thermodynamic data
Wild-type calcitermin (WT) has been previously investigated by our research group in aqueous solutions and ionic medium NaClO4.1 For the sake of comparison, potentiometric studies of WT and its copper and zinc complexes have been performed in a different ionic medium (KCl 0.1 M). The study of the speciation under different experimental conditions, changing ionic medium and metal-ligand ratio, is essential to comprehensively describe the thermodynamics of calcitermin, which is usually found in multicomponent media like biological fluids.
Table S1. Equilibrium constants for protonation of WT and its Cu2+ and Zn2+ complex formation at T = 298 K and I = 0.1 M (KCl). Values in parentheses are standard deviations on the last significant figure.

E. coli (ATCC 25922) = experiment: In vitro anti-E. coli CFU assay; assay type: cell-based, Escherichia coli; details: pH 5.4; for mean CFU number ± S.D.: per 0.1 mL
Description: All microbes were grown at 37 °C in Tryptic Soy Broth (TSB; Biolife, Milan, Italy) or Tryptic Soy Agar plates (TSA, Biolife, Milan, Italy). Peptides were tested at a final concentration C = 0.128, 0.064, 0.032 mg/mL, in the presence or absence of ZnCl2 or CuCl2, at a M:L molar ratio 0.9:1. Briefly, all the microbes were expanded in TSB at 37 °C under agitation for 12 h and then sub-cultured by 1:10 dilution in TSB under the same conditions until reaching OD600nm = 0.3–0.4, as measured by spectrophotometric reading using a GENESYS 10S UV–Vis spectrophotometer (Thermo Scientific, Milan, Italy), corresponding to 0.9–1.2 × 10^7 colony forming units (CFU) per mL, 1.5–2 × 10^8 CFU/mL and 2.4–3.2 × 10^8 CFU/mL, for C. albicans, S. aureus and E. coli respectively. The cultures were then centrifuged at 4500 rpm for 10 min in a SL 8 centrifuge (TX-150 Rotor) (Thermo Scientific, Milan, Italy), and the cellular pellets were washed with PBS pH 5.4. Pelletized cultures were then suspended in 10 mL of PBS pH 5.4, then the suspensions were diluted to a final concentration of 10^4 CFU/mL. Aliquots of 100 µl (corresponding to 10^3 CFU) were seeded in each well of a 96-wells plate. 3 µl of TSB at pH 5.4 were added to each well to obtain a final 1.5% TSB concentration in the culture medium. Peptides were serially diluted in PBS pH 5.4 to C = 0.257, 0.128, and 0.064 mg/mL. ZnCl2 and CuCl2 solutions were added where requested to obtain a M:L ratio 0.9:1. 100 µl of the prepared peptides ± ZnCl2/CuCl2 solutions were then added to each well, obtaining the final 0.128, 0.064 and 0.032 mg/mL peptide concentrations in a total 0.2 mL volume. PBS alone and PBS + ZnCl2/CuCl2 solutions were included as controls. The plates were incubated at 37 °C on a platform rocker with slow stirring for 3 and 24 h. At the end of the incubation times, 100 µl aliquots were taken from each sample and diluted in PBS pH 5.4 to be seeded on TSA plates. Specifically, aliquots were diluted 1:10 at 3 h, and 1:200, 1:100,000 and 1:10 at 24 h, for C. albicans, E. coli, and S. aureus respectively. After incubation for 24 h at 37 °C, grown CFUs were enumerated. Samples were assayed in triplicate in two independent experiments. Student’s t-test was used for the evaluation of significance in biological tests; a p value ≤ 0.05 was considered significant.

[2] = T = 298 K, I = 0.1 M (KCl), charges omitted
[3] = peptide 0.032 mg/mL + CuCl2 (0.9:1), 3 h
[4] = peptide 0.032 mg/mL + CuCl2 (0.9:1), 24 h
[5] = peptide 0.032 mg/mL + ZnCl2 (0.9:1), 3 h
[6] = peptide 0.032 mg/mL + ZnCl2 (0.9:1), 24 h
[7] = peptide 0.064 mg/mL + CuCl2 (0.9:1), 3 h
[8] = peptide 0.064 mg/mL + CuCl2 (0.9:1), 24 h
[9] = peptide 0.064 mg/mL + ZnCl2 (0.9:1), 3 h
[10] = peptide 0.064 mg/mL + ZnCl2 (0.9:1), 24 h
[11] = peptide 0.128 mg/mL + CuCl2 (0.9:1), 3 h
[12] = peptide 0.128 mg/mL + CuCl2 (0.9:1), 24 h
[13] = peptide 0.128 mg/mL + ZnCl2 (0.9:1), 3 h
[14] = peptide 0.128 mg/mL + ZnCl2 (0.9:1), 24 h
[15] = peptide alone 0.032 mg/mL, 24 h
[16] = peptide alone 0.064 mg/mL, 24 h
[17] = peptide alone 0.128 mg/mL, 24 h

## CC[C@H](C)[C@H](NC(=O)[C@H](C)NC(=O)[C@@H](NC(C)=O)C(C)C)C(=O)N[C@@H](C)C(=O)N[C@@H](CC(C)C)C(=O)N[C@@H](CCCCN)C(=O)N[C@@H](C)C(=O)N[C@@H](C)C(=O)N[C@@H](Cc1c[nH]cn1)C(=O)N[C@@H](Cc1ccc(O)cc1)C(=O)N[C@@H](Cc1c[nH]cn1)C(=O)N[C@H](C(=O)N[C@@H](Cc1c[nH]cn1)C(=O)N[C@@H](CCCCN)C(=O)N[C@@H](CCC(=O)O)C(=O)O)[C@@H](C)O [L1, Ac-VAIALKAAHYHTHKE] (Ac-VAIALKAAHYHTHKE-OH)
[1]
  pKa [CuH2L]: 4.40
  pKa [CuH-1L]: 6.88
  pKa [CuHL]: 5.38
  pKa [CuL]: 6.59
  pKa [ZnHL]: 5.80
  pKa [ZnL]: 7.33
[1]; [2]
  logβ [CuH2L]: 18.21(3)
  logβ [CuH-1L]: 1.84(3)
  logβ [CuHL]: 13.81(2)
  logβ [CuL]: 8.43(2)
  logβ [ZnHL]: 11.00(5)
  logβ [ZnL]: 5.21(2)
E. coli (ATCC 25922); [3]
  mean CFU number ± S.D.: 372 ± 16 CFU
E. coli (ATCC 25922); [4]
  CFU decrease/increase with respect to untreated controls: -15%
  mean CFU number ± S.D.: 147 ± 6 CFU
E. coli (ATCC 25922); [5]
  mean CFU number ± S.D.: 343 ± 13 CFU
E. coli (ATCC 25922); [6]
  CFU decrease/increase with respect to untreated controls: -6%
  mean CFU number ± S.D.: 163 ± 18 CFU
E. coli (ATCC 25922); [7]
  mean CFU number ± S.D.: 385 ± 24 CFU
E. coli (ATCC 25922); [8]
  mean CFU number ± S.D.: 58 ± 8 CFU
E. coli (ATCC 25922); [9]
  mean CFU number ± S.D.: 198 ± 7 CFU
E. coli (ATCC 25922); [10]
  CFU decrease/increase with respect to untreated controls: -13%
  mean CFU number ± S.D.: 149 ± 7 CFU
E. coli (ATCC 25922); [11]
  mean CFU number ± S.D.: 151 ± 30 CFU
E. coli (ATCC 25922); [12]
  mean CFU number ± S.D.: 17 ± 18 CFU
E. coli (ATCC 25922); [13]
  mean CFU number ± S.D.: 45 ± 18 CFU
E. coli (ATCC 25922); [14]
  CFU decrease/increase with respect to untreated controls: +8%
  mean CFU number ± S.D.: 187 ± 12 CFU
E. coli (ATCC 25922); peptide alone 0.032 mg/mL, 3 h
  mean CFU number ± S.D.: 749 ± 47 CFU
E. coli (ATCC 25922); [15]
  CFU decrease/increase with respect to untreated controls: +1%
  mean CFU number ± S.D.: 174 ± 6 CFU
E. coli (ATCC 25922); peptide alone 0.064 mg/mL, 3 h
  mean CFU number ± S.D.: 634 ± 10 CFU
E. coli (ATCC 25922); [16]
  CFU decrease/increase with respect to untreated controls: -15%
  mean CFU number ± S.D.: 146 ± 17 CFU
E. coli (ATCC 25922); peptide alone 0.128 mg/mL, 3 h
  mean CFU number ± S.D.: 625 ± 76 CFU
E. coli (ATCC 25922); [17]
  mean CFU number ± S.D.: 140 ± 11 CFU

## CC[C@H](C)[C@H](NC(=O)[C@H](C)NC(=O)[C@@H](NC(C)=O)C(C)C)C(=O)N[C@@H](C)C(=O)N[C@@H](CC(C)C)C(=O)N[C@@H](CCCCN)C(=O)N[C@@H](C)C(=O)N[C@@H](C)C(=O)N[C@@H](Cc1c[nH]cn1)C(=O)N[C@@H](Cc1ccc(O)cc1)C(=O)N[C@@H](Cc1c[nH]cn1)C(=O)N[C@H](C(=O)N[C@@H](Cc1c[nH]cn1)C(=O)N[C@@H](CCCCN)C(=O)N[C@@H](CCC(=O)O)C(N)=O)[C@@H](C)O [L2, Ac-VAIALKAAHYHTHKE-NH2] (Ac-VAIALKAAHYHTHKE-NH2)
[1]
  pKa [CuH2L]: 5.49
  pKa [CuH-1L]: 9.44
  pKa [CuH-2L]: 9.91
  pKa [CuHL]: 6.30
  pKa [CuL]: 6.70
  pKa [ZnH2L]: 6.14
  pKa [ZnH-1L]: 9.44
  pKa [ZnHL]: 7.63
  pKa [ZnL]: 8.93
[1]; [2]
  logβ [CuH2L]: 23.06(4)
  logβ [CuH-1L]: 4.57(6)
  logβ [CuHL]: 17.57(5)
  logβ [CuL]: 11.27(7)
  logβ [ZnH2L]: 20.29(6)
  logβ [ZnHL]: 14.15(4)
  logβ [ZnL]: 6.52(5)
E. coli (ATCC 25922); [3]
  mean CFU number ± S.D.: 467 ± 19 CFU
E. coli (ATCC 25922); [4]
  CFU decrease/increase with respect to untreated controls: -2.9%
  mean CFU number ± S.D.: 167 ± 37 CFU
E. coli (ATCC 25922); [5]
  mean CFU number ± S.D.: 378 ± 8 CFU
E. coli (ATCC 25922); [6]
  CFU decrease/increase with respect to untreated controls: -12.7%
  mean CFU number ± S.D.: 150 ± 4 CFU
E. coli (ATCC 25922); [7]
  mean CFU number ± S.D.: 371 ± 54 CFU
E. coli (ATCC 25922); [8]
  CFU decrease/increase with respect to untreated controls: -2.9%
  mean CFU number ± S.D.: 167 ± 12 CFU
E. coli (ATCC 25922); [9]
  mean CFU number ± S.D.: 248 ± 88 CFU
E. coli (ATCC 25922); [10]
  CFU decrease/increase with respect to untreated controls: -15.1%
  mean CFU number ± S.D.: 146 ± 6 CFU
E. coli (ATCC 25922); [11]
  mean CFU number ± S.D.: 190 ± 15 CFU
E. coli (ATCC 25922); [12]
  CFU decrease/increase with respect to untreated controls: -21%
  mean CFU number ± S.D.: 136 ± 25 CFU
E. coli (ATCC 25922); [13]
  mean CFU number ± S.D.: 44 ± 4 CFU
E. coli (ATCC 25922); [14]
  CFU decrease/increase with respect to untreated controls: -8.1%
  mean CFU number ± S.D.: 158 ± 18 CFU
E. coli (ATCC 25922); peptide alone 0.032 mg/mL, 3 h
  CFU decrease/increase with respect to untreated controls: -1%
  mean CFU number ± S.D.: 1,037 ± 161 CFU
E. coli (ATCC 25922); [15]
  CFU decrease/increase with respect to untreated controls: +9%
  mean CFU number ± S.D.: 187 ± 11 CFU
E. coli (ATCC 25922); peptide alone 0.064 mg/mL, 3 h
  CFU decrease/increase with respect to untreated controls: -2%
  mean CFU number ± S.D.: 1031 ± 83 CFU
E. coli (ATCC 25922); [16]
  CFU decrease/increase with respect to untreated controls: +8%
  mean CFU number ± S.D.: 186 ± 14 CFU
E. coli (ATCC 25922); peptide alone 0.128 mg/mL, 3 h
  CFU decrease/increase with respect to untreated controls: -19%
  mean CFU number ± S.D.: 845 ± 55 CFU
E. coli (ATCC 25922); [17]
  CFU decrease/increase with respect to untreated controls: -3%
  mean CFU number ± S.D.: 166 ± 20 CFU
